Results published in patent US20260263593A1, “ALLERGY ANTIGEN AND EPITOPE THEREOF” (HOYU CO., LTD., priority 2018, published 2026).

Test system: IgE antibody present in the serum of a shrimp-allergic patient
Test: Epitope mapping (1): array of overlapping 15-amino-acid peptides, chemiluminescence
Type: binding, human
Settings: 15-amino-acid peptide array; serum of 37 patients; difference from N2nd value of 5 non-shrimp-allergic subjects at least 35,000
Description: Epitope mapping was carried out using a library of overlapping peptides (length: 15 amino acids) corresponding to the amino acid sequences identified as allergy components of shrimp and the amino acid sequence of arginine kinase. Specifically, the library of overlapping peptides was prepared on the basis of the amino acid sequences of SEQ ID NOs: 117, 141, 146, 2, 45, 87, 276, 161, 230, 179, 362, 381, 399, 421, 455, 481, 486, 520, 541, 300 and 306, and arginine kinase.
The peptides to be synthesized were shifted by 10 amino acids.
For preparation of peptide arrays, the Intavis CelluSpots™ technique was used. Specifically, the peptide arrays were prepared by the following procedure: (1) synthesizing peptides of interest on amino-modified cellulose disks using an automated chemical synthesis apparatus (Intavis MultiPep RS), (2) dissolving the amino-modified cellulose disks to obtain a cellulose-bound peptide solution, and (3) spotting the cellulose-bound peptides onto coated glass slides. The details of each procedure are as described below.
Peptide synthesis was carried out in incremental steps through 9-fluorenylmethoxycarbonyl (Fmoc) chemical reaction on amino-modified cellulose disks in 384-well synthesis plates. Specifically, amino acids in which a Fmoc group is bonded to an amino group were activated in a solution of N,N′-diisopropylcarbodiimide (DIC) and 1-hydroxybenzotriazole (HOBt) in dimethylformamide (DMF) and added dropwise to the cellulose disks so that the Fmoc group-bound amino acids were bound to the amino groups on the cellulose disks (coupling). Unreacted amino groups were capped with acetic anhydride and washed with DMF. Furthermore, the Fmoc groups were eliminated from the amino groups of the amino acids bound to the amino groups on the cellulose disks by treatment with piperidine and washing with DMF. The amino acids bound to the amino groups on the cellulose disks were repetitively subjected to the coupling, the capping, and the Fmoc group elimination described above to elongate the amino terminus for peptide synthesis.
The peptides-bound cellulose disks of interest obtained above in the subsection titled “(1) Synthesis of peptide” were transferred to 96-well plates and treated with a side chain deprotection mixed solution of trifluoroacetic acid (TFA), dichloromethane, triisopropylsilane (TIPS), and water for deprotection of amino acid side chains. Then, the deprotected cellulose-bound peptides were dissolved in a mixed solution of TFA, trifluoromethanesulfonic acid (TFMSA), TIPS, and water and precipitated in tetrabutyl methyl ether (TBME), and the precipitate was resuspended in dimethyl sulfoxide (DMSO) and mixed with a mixed solution of NaCl, sodium citrate, and water to obtain a peptide solution for slide spotting.
The peptide solution for slide spotting obtained above in the subsection titled “(2) Dissolution of amino-modified cellulose disk” was spotted onto Intavis CelluSpots™ slides using Intavis Slide Spotting Robot, and the slides were dried to prepare peptide arrays.
The presence or absence of binding, to each peptide fragment, of an IgE antibody present in the serum of a shrimp-allergic patient was measured through antigen-antibody reaction using the peptide arrays. […]

## E17: common 15-residue IgE-binding epitope sequence of polypeptide (E17), pyruvate kinase 3-derived (PGNRIFVDDGLISLI; VAR_SEQ 1..15 epitope) [Epitope E17]
  Peptide bound to an IgE antibody in serum in a patient-specific manner: bound to an IgE antibody in serum in a patient-specific manner

## E26: common 15-residue IgE-binding epitope sequence of polypeptide (E26), myosin heavy chain type 1-derived (PDPDPTEYLFISREQ; VAR_SEQ 1..15 epitope) [Epitope E26]
  Peptide bound to an IgE antibody in serum in a patient-specific manner: bound to an IgE antibody in serum in a patient-specific manner

## E46: common 15-residue IgE-binding epitope sequence of polypeptide (E46), phosphopyruvate hydratase-derived (TGVHEALEMRDGDKS; VAR_SEQ 1..15 epitope) [Epitope E46]
  Peptide bound to an IgE antibody in serum in a patient-specific manner: bound to an IgE antibody in serum in a patient-specific manner

## E16: common 15-residue IgE-binding epitope sequence of polypeptide (E16), pyruvate kinase 3-derived (NVRKAAQKYSDKIGH; VAR_SEQ 1..15 epitope) [Epitope E16]
  Peptide bound to an IgE antibody in serum in a patient-specific manner: bound to an IgE antibody in serum in a patient-specific manner

## E29: common 15-residue IgE-binding epitope sequence of polypeptide (E29), myosin heavy chain type 1-derived (QRYNILAAKEMLEAK; VAR_SEQ 1..15 epitope) [Epitope E29]
  Peptide bound to an IgE antibody in serum in a patient-specific manner: bound to an IgE antibody in serum in a patient-specific manner

## E19: common 15-residue IgE-binding epitope sequence of polypeptide (E19), mitochondrial ATP synthase subunit alpha precursor-derived (VLSIGDGIARVYGLK; VAR_SEQ 1..15 epitope) [Epitope E19]
  Peptide bound to an IgE antibody in serum in a patient-specific manner: bound to an IgE antibody in serum in a patient-specific manner

## E2: common 15-residue IgE-binding epitope sequence of polypeptide (E2), myosin heavy chain type 1-derived (ARVISQSPAERGYHI; VAR_SEQ 1..15 epitope) [Epitope E2]
  Peptide bound to an IgE antibody in serum in a patient-specific manner: bound to an IgE antibody in serum in a patient-specific manner

## E8: common 15-residue IgE-binding epitope sequence of polypeptide (E8), myosin heavy chain type 2-derived (LEEADNQINQLNNLK; VAR_SEQ 1..15 epitope) [Epitope E8]
  Peptide bound to an IgE antibody in serum in a patient-specific manner: bound to an IgE antibody in serum in a patient-specific manner

## E34: common 15-residue IgE-binding epitope sequence of polypeptide (E34), myosin heavy chain type 1-derived (VQVNPPKYEKCEDVS; VAR_SEQ 1..15 epitope) [Epitope E34]
  Peptide bound to an IgE antibody in serum in a patient-specific manner: bound to an IgE antibody in serum in a patient-specific manner

## E20: common 15-residue IgE-binding epitope sequence of polypeptide (E20), mitochondrial ATP synthase subunit alpha precursor-derived (PESDAKLKQIVTDFL; VAR_SEQ 1..15 epitope) [Epitope E20]
  Peptide bound to an IgE antibody in serum in a patient-specific manner: bound to an IgE antibody in serum in a patient-specific manner

## E3: common 15-residue IgE-binding epitope sequence of polypeptide (E3), myosin heavy chain type 1-derived (GYKDQLANLMKTLNA; VAR_SEQ 1..15 epitope) [Epitope E3]
  Peptide bound to an IgE antibody in serum in a patient-specific manner: bound to an IgE antibody in serum in a patient-specific manner
